# Values of other authors in patent US20030124112A1, “Use of a lacrophyl preparation in eye drops containing therpeutically active compounds” (priority 2000, published 2003).
# Key:
# tear lysozyme = conditions: dropped in the eye, glaucome
# [1] = 0.0001% benzalkonium-chloride, in vitro
effect on amount of tear lysozyme (tear lysozyme),Compound,effect on cells [1]
decrease of the amount of tear lysozyme,CC(C)(C)NC[C@H](O)COc1nsnc1N1CCOCC1 [timolol],–
–,benzalkonium-chloride,causes cell death
decrease of the amount of tear lysozyme,CC(C)(C)NCC(O)COc1cccc2c1CCC(=O)N2 (stereo not drawn) [cartelol],–
